# Reference: patent US11331364B2, “Use for JNK inhibitor molecules for treatment of various diseases” (Xigen Inflammation Ltd., priority 2014, dated 2022)
# Square brackets hold non-standard residues; d marks the D form. Peptide text beside a SMILES is read from it.
# How the values were obtained:
# [1] = system: endotoxins-induced uveitis albino rat model; test: Endotoxins-induced uveitis (EIU), single intravenous injection, clinical scoring; assay type: in vivo; parameters: key to clinical score (mean±SEM) / clinical score, median: clinical ocular inflammation score per eye, 0 to 4; settings: 24 h after LPS
# Experimental: The anti-inflammatory potency of the JNK inhibitor of SEQ ID NO: 172 was tested in albino rats following intravenous administration (EIU/LPS model). The aim of this study was to determine the effects of single intravenous injections of SEQ ID NO: 172 (0.015, 0.18, and 1.80 mg/kg) on the inflammatory response in an endotoxins-induced uveitis albino rat model and to compare these affects to those obtained with prior art JNK inhibitor of SEQ ID NO: 197 (2 mg/kg). As a further control served phosphate sodic dexamethasone (“reference”) and vehicle (0.9% NaCl).
# Sixty (60) male Lewis rats were randomly divided into six (6) groups often (10) animals each. 0.9% NaCl (vehicle, “control”), SEQ ID NO: 197 at 2 mg/kg and SEQ ID NO: 172 at three concentrations (1.80 mg/kg, 0.18 mg/kg and 0.015 mg/kg) were administered by intravenous injection just before EIU induction (on the day of induction). Accordingly, phosphate sodic dexamethasone (20 Dg/eye, 5 μl; “reference”) was administered by a single sub-conjunctival injection in both eyes just before EIU induction (on the day of induction). EIU was induced by footpad injection of lipopolysaccharide (LPS, 1 mg/kg). 24 hours after LPS injection, inflammatory response was evaluated by clinical scoring.
# The intensity of clinical ocular inflammation was scored on a scale from 0 to 4 for each eye: […]
# [2] = system: mouse model of scopolamine-induced dry eye; test: Scopolamine-induced dry eye, topical ocular TID 21 days (TBUT, PRTT, histopathology); assay type: in vivo; settings: for Mean PRTT AUC: Day 7-21, in mm·day (unit assumed); for Mean Calculated TBUT AUC: Day 7 to Day 21, in s·day (unit assumed)
# Experimental: The objective of this study was to assess the effects of two different compounds, the all-D-retro-inverso JNK-inhibitor (poly-)peptide of SEQ ID NO: 197 and the JNK inhibitor (poly-)peptide of SEQ ID NO: 172, at three dose levels in a mouse model of scopolamine-induced dry eye.
# The peptides of SEQ ID NO: 197 and SEQ ID NO: 172 were tested for efficacy in this murine model of dry eye. The peptides were both tested at a low, medium and a high dose. […] The vehicle, which also served as the negative control, was 0.9% Sodium Chloride for Injection USP.
# The study consisted of a total of 9 groups of female C57BL/6 mice, comprising 8 groups of 12 mice each and an additional group of 4 mice. Bilateral short-term dry eye was induced by a combination of scopolamine hydrobromide (Sigma-Aldrich Corp., St. Louis, Mo.) injection (subcutaneous (SC), four times daily, 0.5 mg/dose, Days 0-21) and by exposing mice to the drying environment of constant air draft. […] Mice of Group 9 were maintained as un-induced, (no dry eye) untreated controls.
# During the in-life (treatment) period, clinical observations were recorded once daily; slit-lamp examination (SLE) with corneal fluorescein staining, tear break-up time test (TBUT), and phenol red thread test (PRTT) were performed three times per week. Necropsies were performed on Day 22; eyes, eye lids, conjunctivae, and lacrimal glands were collected from both eyes of each animal. Tissues from the right eyes (oculus dexter, OD) were fixed and then evaluated microscopically. Tissues from the left eyes (oculus sinister; OS) were flash-frozen in liquid nitrogen and stored frozen at −80° C. for possible subsequent analyses.
# The TBUT test was conducted three times weekly by measuring the time elapsed in seconds between a complete blink after application of fluorescein to the cornea and the appearance of the first random dry spot in the tear film. […] At least ninety seconds later, corneal epithelial damage was graded using a slit-lamp with a cobalt blue filter after another drop of 0.1% fluorescein was reapplied to the cornea; the cornea then was scored per the Draize ocular scale.
# Tear production was measured three times a week in both eyes using PRTT test strips (Zone-Quick; Menicon, Nagoya, Japan). Prior to the first treatment of the day, a thread was applied to the lateral canthus of the conjunctival fornix of each eye for 30 seconds under slit-lamp biomicroscopy. Tear migration up the tread (i.e., the length of the wetted cotton thread) was measured using a millimeter scale.
# At necropsy on Day 22, both eyes from each animal, including the globes, lacrimal glands, eyelids, and conjunctivae, were excised. The right eye and associated tissues were fixed by overnight submersion in modified Davidson's solution followed by transfer to 10% neutral buffered formalin (NBF). The fixed tissues of the right eye were dehydrated, embedded in paraffin, sectioned at 3 to 5-μm thicknesses, and slide-mounted tissues were stained with hematoxylin and eosin (H & E). Stained slides were evaluated via light microscopy. Detailed and complete histopathologic assessment was conducted on all parts of the eye, with at least two section levels being examined histopathologically for each right eye. Special attention was paid to the cornea, epithelia (including goblet cells) of the conjunctiva and cornea, as well as the lacrimal gland. These tissues were scored for injury based upon a 0-4 scale, with 0 being normal, 1 being minimal, 2 being mild, 3 being moderate, and 4 being severe. For each cornea, scores were based on corneal epithelium thickness, and corneal inflammation.
smiles,measurement,setting,value
"CC(C)C[C@H](NC(=O)[C@H](CC(N)=O)NC(=O)[C@H](CC(C)C)NC(=O)[C@@H](NC(=O)[C@@H](C)NC(=O)[C@@H]1CCCN1C(=O)[C@H](CCCNC(=N)N)NC(=O)[C@@H](CCCCN)NC(=O)[C@@H]1CCCN1C(=O)[C@H](CCCNC(=N)N)NC(=O)[C@@H](CCCNC(=N)N)NC(=O)[C@H](CCCNC(=N)N)NC(=O)[C@H](CCCNC(=N)N)NC(=O)[C@H](CCC(N)=O)NC(=O)[C@@H](CCCNC(=N)N)NC(=O)[C@H](CCCNC(=N)N)NC(=O)[C@H](CCCCN)NC(=O)[C@H](CCCCN)NC(=O)[C@H](N)CCCNC(=N)N)[C@@H](C)O)C(=O)N[C@H](Cc1ccccc1)C(N)=O [SEQ ID NO: 172, rKKRrQRRrRPkRPaTLNLf] (H-[dR]KKR[dR]QRR[dR]RP[dK]RP[dA]TLNL[dF]-NH2; N-terminus assumed)",clinical score (mean±SEM),[1]; 0.015 mg/kg i.v.,2.3±0.3
same,"clinical score, median",[1]; 0.015 mg/kg i.v.,2
same,reduction of inflammation vs vehicle,[1]; 0.015 mg/kg i.v.,36%
same,clinical score (mean±SEM),[1]; 0.18 mg/kg i.v.,2.4±0.3
same,"clinical score, median",[1]; 0.18 mg/kg i.v.,2
same,reduction of inflammation vs vehicle,[1]; 0.18 mg/kg i.v.,33%
same,clinical score (mean±SEM),[1]; 1.80 mg/kg i.v.,2.1±0.3
same,"clinical score, median",[1]; 1.80 mg/kg i.v.,2
same,reduction of severity of ocular inflammation vs vehicle,[1]; 1.80 mg/kg i.v.,42%
same,TBUT mean nadir (Day 7),[2]; 0.05% TID OU,6.6 ± 0.4 s
same,TBUT mean peak (Day 9),[2]; 0.05% TID OU,8.0 ± 0.4 s
same,Mean PRTT AUC,[2]; 0.05% TID OU,44.38
same,Mean Calculated TBUT AUC,[2]; 0.05% TID OU,102.98
same,TBUT mean nadir (Day 7),[2]; 0.2% TID OU,6.7 ± 0.4 s
same,TBUT mean peak (Day 9),[2]; 0.2% TID OU,10.0 ± 0.7 s
same,histological cornea scores compared to cyclosporine group,[2]; 0.2% TID OU,not significantly different than the cyclosporine group scores
same,Mean PRTT AUC,[2]; 0.2% TID OU,44.85
same,Mean Calculated TBUT AUC,[2]; 0.2% TID OU,119.08
same,TBUT mean nadir (Day 7),[2]; 0.6% TID OU,6.7 ± 0.3 s
same,TBUT mean peak (Day 9),[2]; 0.6% TID OU,9.9 ± 0.8 s
same,histological cornea scores compared to cyclosporine group,[2]; 0.6% TID OU,not significantly different than the cyclosporine group scores
same,Mean PRTT AUC,[2]; 0.6% TID OU,46.10
same,Mean Calculated TBUT AUC,[2]; 0.6% TID OU,119.31
same,TBUT AUC compared with vehicle control,"[2]; SEQ ID NO: 172 0.05%, 0.2% and 0.6%, cyclosporine 0.05%, Kruskal-Wallis",significant increases in the TBUT AUC
same,"PRTT, aqueous tear production","[2]; low, mid and high dose levels",produced significantly more aqueous tears compared to vehicle-treated animals
"CC(C)C[C@@H](NC(=O)[C@@H](Cc1ccccc1)NC(=O)[C@H]1CCCN1C(=O)[C@@H](CCC(N)=O)NC(=O)[C@H](NC(=O)[C@H]1CCCN1C(=O)[C@@H](CCCNC(=N)N)NC(=O)[C@@H](CO)NC(=O)[C@@H](CCC(N)=O)NC(=O)[C@H](N)CC(=O)O)C(C)C)C(=O)N[C@H](CC(N)=O)C(=O)N[C@H](CC(C)C)C(=O)N[C@@H](C(=O)N[C@@H](C(=O)N1CCC[C@@H]1C(=O)N[C@H](CCCNC(=N)N)C(=O)N[C@H](CCCCN)C(=O)N1CCC[C@@H]1C(=O)N[C@H](CCCNC(=N)N)C(=O)N1CCC[C@@H]1C(=O)N1CCC[C@@H]1C(=O)N[C@H](CCCNC(=N)N)C(=O)N[C@H](CCCNC(=N)N)C(=O)N[C@H](CCCNC(=N)N)C(=O)N[C@H](CCC(N)=O)C(=O)N[C@H](CCCNC(=N)N)C(=O)N[C@H](CCCNC(=N)N)C(=O)N[C@H](CCCCN)C(=O)N[C@H](CCCCN)C(=O)N[C@H](CCCNC(=N)N)C(=O)NCC(N)=O)[C@H](C)O)[C@H](C)O [SEQ ID NO: 197, dqsrpvqpflnlttprkprpprrrqrrkkrg, reference compound] (H-[dD][dQ][dS][dR][dP][dV][dQ][dP][dF][dL][dN][dL][dT][dT][dP][dR][dK][dP][dR][dP][dP][dR][dR][dR][dQ][dR][dR][dK][dK][dR]G-NH2)",clinical score (mean±SEM),[1]; 2 mg/kg i.v.,2.2±0.3
same,"clinical score, median",[1]; 2 mg/kg i.v.,2
same,decrease of EIU scores vs vehicle group,[1]; 2 mg/kg i.v.,40%
same,corneal changes in comparison to other treatment groups,[2]; 0.06% TID OU,slightly more severe
same,Mean PRTT AUC,[2]; 0.06% TID OU,39.96
same,Mean Calculated TBUT AUC,[2]; 0.06% TID OU,88.54
same,Mean PRTT AUC,[2]; 0.25% TID OU,42.79
same,Mean Calculated TBUT AUC,[2]; 0.25% TID OU,91.19
same,histological cornea scores compared to cyclosporine group,[2]; 0.6% TID OU,not significantly different than the cyclosporine group scores
same,Mean PRTT AUC,[2]; 0.6% TID OU,43.17
same,Mean Calculated TBUT AUC,[2]; 0.6% TID OU,89.98
same,"PRTT, aqueous tear production","[2]; low, mid and high dose levels",generally dose-dependent increases in PRTT
same,TBUT,"[2]; low, mid and high dose levels",slight generally dose-dependent increases in TBUT
